Values of other authors as cited in patent US10058616B2, “Pharmaceutical compositions to reduce complications of ocular steroid” (TAIWAN LIPOSOME COMPANY, LTD., priority 2012, dated 2018).
Read-outs that look alike come from different tables or passages of the source.

Compound	progression of cataract, patients (patients; after intravitreal steroid injection)	incidence of increased IOP after intravitreal steroid injection (patients; at 3 months)	incidence of increased IOP after intravitreal steroid injection (patients; at 6 months)	incidence of increased IOP after intravitreal steroid injection (patients; at one month)	half-life in the vitreous humor
CC1(C)O[C@@H]2C[C@H]3[C@@H]4CCC5=CC(=O)C=C[C@]5(C)[C@@]4(F)[C@@H](O)C[C@]3(C)[C@]2(C(=O)CO)O1 [triamcinolone acetonide]	22.72%	75%	47.05%	57.69%	
dexamethasone sodium phosphate [Non-associated DSP]					about 3.5 hours
